Data as given in patent US20070157931A1, “System and method for optimized delivery of an aerosol to the respiratory tract” (priority 2005, published 2007).

What was measured:
Format in all cases: in vivo
anesthetized sheep = assay: Bronchoconstriction produced by sodium arachidonate aerosol in anesthetized ventilated sheep; conditions: aerosolized, dose 1.5 grams/50 ml typically diluted 1:3
Method: In anesthetized sheep with either normal lung mechanics or during bronchoconstriction, the effects of phasic aerosol delivery on the amount of radioisotope deposited in the lungs and the amount expired (as collected in a waste filter) were tested. Results were compared to those in which aerosol was delivered continuously. Sheep were anesthetized and ventilated with oxygen-enriched air at a tidal volume of 500 ml and a respiratory rate of 10 breaths per minute. The ventilator setup is illustrated schematically in FIG. 15.
FIGS. 16-18 also illustrate effects of bronchoconstriction produced by an aerosol of sodium arachidonate on aerosol delivery efficiency. These studies were conducted after the control studies discussed above. Arachidonic acid was converted to sodium arachidonate by the procedure of Ogletree and Brigham and was aerosolized (Dose=1.5 grams/50 ml typically diluted 1:3) to cause marked bronchoconstriction and/or decreased lung compliance and thus elevated airway pressure. […] During bronchoconstriction, ^99mTc-DTPA was administered by phasic aerosol delivery while maintaining the arachidonate delivery. […]

[1] = Wasted fraction of continuously delivered radioaerosol in ventilated sheep, expiratory filter gamma counting; conditions: continuous zero flow nebulizer
Method: This study was designed to compare the wasted fraction of ^99mTc-DTPA aerosols delivered continuously with the zero flow nebulizer to control sheep (n=6) and sheep administered 2 mg/kg E. coli endotoxin. This dose of endotoxin in sheep causes a period of intense bronchoconstriction and pulmonary vasoconstriction followed by pulmonary edema. The experimental setup was similar to that illustrated in FIG. 15, except that no scintillation probe was used and isotope waste was measured by counting radioactivity in a filter placed in the expiratory portion of the ventilator tubing using a gamma energy counter. The wasted fraction of aerosol was more than 3-fold higher during endotoxin-induced lung injury with endotoxin [3,836,141 (n=1)] than when the lungs were normal [1,289,102±125,326 (n=6)].

[2] = Aerosol deposition and clearance of radiotracers in lungs of ventilated sheep (Hawkeye imaging, gamma counting of lung tissue); conditions: Hi-Flo MiniHeart nebulizer
Method: The present study was designed to assess aerosol deposition patterns using jet nebulizers and the device of the present disclosure. These studies were conducted in the Vanderbilt University Medical Center Hawkeye scanning facility. Each sheep was surgically instrumented with catheters in a jugular vein and a carotid artery. After allowing several days for the sheep to recuperate from surgery, they were anesthetized, intubated, ventilated, and placed on the GE Hawkeye scanner bed. […] The contents of the syringe were then added to a nebulizer and aerosols generated for 30 minutes during ventilator-assisted inspiration. Planar images were taken every two minutes with anterior and posterior cameras. Nebulization was then halted, and clearance of the radiotracers over two hours was measured with Hawkeye in an identical manner. At the end of the radioisotope clearance image acquisition, a rotational CT image was taken of the sheep thoracic cavity to delineate lung boundaries and chest anatomy. The sheep was sacrificed and its lungs excised. Lungs were placed on grid paper and diced with a rectangular cutting grid. Lung tissue was placed in plastic vials and gamma energy emissions of each isotope measured with a gamma counter.

| SMILES | hypoxemia during bronchoconstriction (anesthetized sheep) | airway pressure during bronchoconstriction (anesthetized sheep; within 20 minutes) | wasted fraction, endotoxin-induced lung injury versus normal lungs [1] | wasted fraction of aerosol (radioactivity in expiratory filter) ([1]; endotoxin-induced lung injury, 2 mg/kg E. coli endotoxin, n=1) | wasted fraction of aerosol (radioactivity in expiratory filter) ([1]; normal lungs, control sheep, n=6) | tracer remaining in lungs after halting aerosol generation ([2]; 2 hours after halting aerosol generation) | radioisotope distribution in lung tissue ([2]; gamma counting of lung tissue samples) |
| --- | --- | --- | --- | --- | --- | --- | --- |
| CCCCC/C=C\C/C=C\C/C=C\C/C=C\CCCC(=O)[O-].[Na+] [sodium arachidonate] | marked hypoxemia | 48-50 cm H2O |  |  |  |  |  |
| O=C([O-])CN(CCN(CC(=O)[O-])CC(=O)[O-])CCN(CC(=O)[O-])CC(=O)[O-].[99Tc+4] [99mTc-DTPA] |  |  | more than 3 fold | 3,836,141 | 1,289,102±125,326 | much of the tracer remained | higher dorsal (towards back) and caudal (towards tail) deposition |
